We go through six molecules from ChEMBL document CHEMBL4118082 (Eur J Med Chem, 2017).

Holding throughout (assay type): functional
In experiment [1] the test system is Mycobacterium tuberculosis. The experiment in a line: Growth inhibition of Mycobacterium tuberculosis H37Ra Lehmann and Neumann ATCC 25177 harboring pSMT1 luciferase reporter at 1 uM after 6 days by luminescence based serial dilution method relative to control. The conditions noted are these: H37Ra Lehmann and Neumann ATCC 25177, 144 h, read-out: GI. For orientation: In a reporter assay the amount or activity of a reporter protein is the signal.

In experiment [2] the test system is Mycobacterium tuberculosis. Description: Growth inhibition of Mycobacterium tuberculosis H37Ra Lehmann and Neumann ATCC 25177 harboring pSMT1 luciferase reporter at 10 uM after 6 days by luminescence based serial dilution method relative to control. The conditions noted are these: H37Ra Lehmann and Neumann ATCC 25177, 144 h, read-out: GI.
The test system of experiment [3] is Mycobacterium tuberculosis. Description: Antimycobacterial activity against Mycobacterium tuberculosis H37Ra Lehmann and Neumann ATCC 25177 harboring pSMT1 luciferase reporter after 6 days by luminescence based serial dilution method. The conditions noted are these: H37Ra Lehmann and Neumann ATCC 25177, 144 h.
Experiment [4] relates to Mycobacterium tuberculosis. Description: Growth inhibition of Mycobacterium tuberculosis H37Ra Lehmann and Neumann ATCC 25177 harboring pSMT1 luciferase reporter at 0.1 uM after 6 days by luminescence based serial dilution method relative to control. The conditions noted are these: H37Ra Lehmann and Neumann ATCC 25177, 144 h, read-out: GI.

Converted amounts (≈) assume the structure as drawn.

As a reminder, the MIC90 is an inhibitory concentration at the 90% level, which refers to growth in some studies and to a panel of isolates in others. The low end stands for higher susceptibility, the high end for lower susceptibility. Regarding `O=c1c(-c2ccccc2)c(O)c2ccccc2n1-c1ccccc1`, in experiment [1], the inhibition of growth at 1 µM was determined as 53.7%. Also, the inhibition of growth at 10 µM in experiment [2] came out at 98.3%. In experiment [3], this molecule gave an MIC90 of 6.4 µM (≈ 2.01 µg/mL). In addition, the inhibition of growth at 0.1 µM in experiment [4] was 30.1%.
The like results for `COc1ccc2[nH]c(=O)c(-c3ccccc3)c(O)c2c1` were, in that order, 24.5%, 90.8%, 8.7 µM (≈ 2.33 µg/mL) and 9.4%.
Consider `O=c1[nH]c2c(O)cccc2c(O)c1-c1ccccc1`, for which the inhibition of growth at 1 µM in experiment [1] is 67.1%. For the same molecule, the inhibition of growth at 10 µM in experiment [2] was 95.3%. In experiment [3], this molecule registered an MIC90 of 8.3 µM (≈ 2.1 µg/mL). Besides, the inhibition of growth at 0.1 µM in experiment [4] came out at 60%.
As to `O=c1[nH]c2ccc(F)cc2c(O)c1-c1ccccc1`, in experiment [1], the inhibition of growth at 1 µM turned out to be 42.6%. In experiment [2], the inhibition of growth at 10 µM is 99.5%. For the same molecule, the MIC90 in experiment [3] is 3.2 µM (≈ 0.817 µg/mL). In experiment [4], the inhibition of growth at 0.1 µM is 35.1%.
The like results for `Cc1c(O)c2ccccc2[nH]c1=O` were, in that order, 46.6%, 55.5%, 6.8 µM (≈ 1.19 µg/mL) and 43.6%.
Take `Cc1cc2[nH]c(=O)c(-c3ccccc3)c(O)c2cc1C`: the inhibition of growth at 1 µM in experiment [1] was found to be 48.3%. Further, the inhibition of growth at 10 µM in experiment [2] was 90.7%. The same molecule came in with an MIC90 in experiment [3] of 9.2 µM (≈ 2.44 µg/mL). For the same molecule, the inhibition of growth at 0.1 µM in experiment [4] is 32.5%.
